The record followed here is patent US20210221866A1, “PROTEASE-RESISTANT LIPIDATED GLP-1 ANALOGS” (MEDIMMUNE LIMITED, priority 2015, published 2021).

The experiment concerns the target T1, human GLP-1 receptor (GLP-1R) (Homo sapiens, UniProt P43220).
T1 construct: expressed in transfected cells; host or cells: HEK293 cells or CHO cells
In words: cAMP assay, human GLP-1R cells. It is filed as cell-based. The note with it: cAMP activity. As to the method: Sample dilutions are made in duplicate.
A frozen cryo-vial of cells expressing the receptor of interest is thawed rapidly in a water-bath, transferred to pre-warmed assay buffer and spun at 240×g for 5 minutes. Cells are re-suspended in assay buffer at a batch-dependent optimized concentration (e.g. hGCGR cells at 2×10^5 cells/ml, hGLP-1R and hGIPR cells at 1×10^5 cells/ml).
To this, 5 μL cell suspension is added and the plates incubated at room temperature for 30 minutes.
cAMP levels are measured using a commercially available cAMP dynamic 2 HTRF kit (Cisbio, Cat #62AM4PEJ), following the two step protocol as per manufacturer's recommendations. In brief; anti-cAMP cryptate (donor fluorophore) and cAMP-d2 (acceptor fluorophore) are made up separately by diluting each 1/20 in conjugate & lysis buffer provided in the kit. 5 μL anti-cAMP cryptate is added to wells of the assay plate, and 5 μL cAMP-d2 is added to wells except non-specific binding (NSB) wells, to which conjugate and lysis buffer are added. […] EC50 values of the synthetic peptides determined in cAMP assays are then determined.
Data is transformed to % Delta F as described in the manufacturer's guidelines and analyzed by 4-parameter logistic fit to determine EC50 values. […] To compare the balance of activities at the GLP-1R and GCGR between different peptides and across different conditions, these can be correlated, where the EC50's are related to those of comparator peptides.
On the technique in general: cAMP levels reflect the balance of adenylyl cyclase and phosphodiesterase activity.

The mark [1] stands for this setting: mean of n1 and n2, read-out: Mean pM GLP-1R.
Setting [2] is: second determination (n2), read-out: Primary assay EC50 GLP-1R n2.

Like-named read-outs stand apart in the source and are kept apart here. Numbered stars: 1 amine (or outer) side, 2 acyl side, 3 side chain; on linkers, the order of the positions; unused ones are H or OH. Square brackets hold non-standard residues; d marks the D form. Side chains are listed from the residue outwards. Peptide text beside a SMILES is read from it. * marks the point of attachment. C18 diacid = O=C(O)CCCCCCCCCCCCCCCCC(=O)*; γGlu = O=C(O)[C@H](CCC(=O)[*:2])N[*:1]; Palmitoyl = CCCCCCCCCCCCCCCC(=O)*; αMeF = C[C@](N)(Cc1ccccc1)C(=O)O; αMeK = C[C@](N)(CCCCN)C(=O)O; αMeS = C[C@](N)(CO)C(=O)O; AEEA = NCCOCCOCC(=O)O; Aib = CC(C)(N)C(=O)O

T1 sequence (P43220 24-463): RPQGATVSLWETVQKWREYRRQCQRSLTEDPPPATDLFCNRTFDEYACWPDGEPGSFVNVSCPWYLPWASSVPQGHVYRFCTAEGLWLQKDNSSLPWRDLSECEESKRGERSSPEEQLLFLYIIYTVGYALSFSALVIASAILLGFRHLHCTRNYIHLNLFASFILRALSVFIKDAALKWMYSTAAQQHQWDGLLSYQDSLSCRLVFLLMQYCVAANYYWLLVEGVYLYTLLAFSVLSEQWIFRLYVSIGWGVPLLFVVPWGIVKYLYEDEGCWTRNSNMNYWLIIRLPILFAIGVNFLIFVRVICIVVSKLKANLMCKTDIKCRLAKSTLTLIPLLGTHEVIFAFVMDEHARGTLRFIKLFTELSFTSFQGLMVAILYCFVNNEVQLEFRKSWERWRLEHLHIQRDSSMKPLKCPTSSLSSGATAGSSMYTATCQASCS

Consider `CC[C@H](C)[C@H](NC(=O)[C@H](Cc1ccccc1)NC(=O)[C@H](CCC(=O)O)NC(=O)[C@H](CCCCN)NC(=O)[C@H](C)NC(=O)[C@H](C)NC(=O)[C@H](CCC(N)=O)NC(=O)CNC(=O)[C@H](CCC(=O)O)NC(=O)[C@H](CC(C)C)NC(=O)[C@H](Cc1ccc(O)cc1)NC(=O)[C@H](CO)NC(=O)C(C)(C)NC(=O)[C@@H](NC(=O)[C@H](CC(=O)O)NC(=O)[C@H](CO)NC(=O)[C@@H](NC(=O)[C@H](Cc1ccccc1)NC(=O)[C@@H](NC(=O)CNC(=O)[C@H](CCC(=O)O)NC(=O)C(C)(C)NC(=O)[C@@H](N)Cc1c[nH]cn1)[C@@H](C)O)[C@@H](C)O)C(C)C)C(=O)N[C@@H](C)C(=O)N[C@@H](Cc1c[nH]c2ccccc12)C(=O)N[C@@H](CC(C)C)C(=O)N[C@H](C(=O)N[C@@H](CCCCN)C(=O)NCC(=O)N[C@@H](CCCNC(=N)N)C(N)=O)C(C)C` [compound 22] (H-H[Aib]EGTFTSDV[Aib]SYLEGQAAKEFIAWLVKGR-NH2; N-terminus assumed), for which the EC50 under setting [1] is 118 pM.
In the case of `CC[C@H](C)[C@H](NC(=O)[C@](C)(Cc1ccccc1)NC(=O)[C@H](CCC(=O)O)NC(=O)[C@](C)(CCCCN)NC(=O)[C@H](C)NC(=O)[C@H](C)NC(=O)[C@H](CCC(=O)O)NC(=O)CNC(=O)[C@H](CCC(=O)O)NC(=O)[C@H](CC(C)C)NC(=O)[C@](C)(Cc1ccccc1)NC(=O)[C@H](CO)NC(=O)[C@](C)(CO)NC(=O)[C@@H](NC(=O)[C@H](CC(=O)O)NC(=O)[C@H](CCC(=O)O)NC(=O)[C@@H](NC(=O)[C@](C)(Cc1ccccc1)NC(=O)[C@H](CO)NC(=O)CNC(=O)[C@H](CCC(=O)O)NC(=O)C(C)(C)NC(=O)[C@@H](N)Cc1c[nH]cn1)[C@@H](C)O)C(C)C)C(=O)N[C@@H](C)C(=O)N[C@@](C)(Cc1ccccc1)C(=O)N[C@H](C(=O)N[C@H](C(=O)N[C@@](C)(CCCCN)C(=O)NCC(=O)NCC(N)=O)C(C)C)C(C)C` [compound 28] (H-H[Aib]EGS[αMeF]TEDV[αMeS]S[αMeF]LEGEAA[αMeK]E[αMeF]IA[αMeF]VV[αMeK]GG-NH2; N-terminus assumed), the EC50 reads like this: under setting [1], 4620 pM; under setting [2], 4700 pM.
Regarding `CC[C@H](C)[C@H](NC(=O)[C@](C)(Cc1ccccc1)NC(=O)[C@H](CCC(=O)O)NC(=O)[C@](C)(CCCCN)NC(=O)[C@H](C)NC(=O)[C@H](C)NC(=O)[C@H](CCC(=O)O)NC(=O)CNC(=O)[C@H](CCC(=O)O)NC(=O)[C@H](CC(C)C)NC(=O)[C@](C)(Cc1ccccc1)NC(=O)[C@H](CO)NC(=O)[C@](C)(CO)NC(=O)[C@@H](NC(=O)[C@H](CC(=O)O)NC(=O)[C@@H](NC(=O)[C@@H](NC(=O)[C@](C)(Cc1ccccc1)NC(=O)[C@H](CO)NC(=O)CNC(=O)[C@H](CCC(=O)O)NC(=O)C(C)(C)NC(=O)[C@@H](N)Cc1c[nH]cn1)[C@@H](C)O)[C@@H](C)O)C(C)C)C(=O)N[C@@H](C)C(=O)N[C@@](C)(Cc1ccccc1)C(=O)N[C@H](C(=O)N[C@H](C(=O)N[C@@](C)(CCCCN)C(=O)NCC(=O)NCC(N)=O)C(C)C)C(C)C` [compound 29] (H-H[Aib]EGS[αMeF]TTDV[αMeS]S[αMeF]LEGEAA[αMeK]E[αMeF]IA[αMeF]VV[αMeK]GG-NH2), the EC50 under setting [1] is 801 pM.
In the case of `CCCCCCCCCCCCCCCC(=O)N[C@@H](CCC(=O)NCCCC[C@H](NC(=O)[C@](C)(Cc1ccccc1)NC(=O)[C@H](C)NC(=O)[C@@H](NC(=O)[C@](C)(Cc1ccccc1)NC(=O)[C@H](CCC(=O)O)NC(=O)[C@](C)(CCCCN)NC(=O)[C@H](C)NC(=O)[C@H](C)NC(=O)[C@H](CCC(=O)O)NC(=O)CNC(=O)[C@H](CCC(=O)O)NC(=O)[C@H](CC(C)C)NC(=O)[C@](C)(Cc1ccccc1)NC(=O)[C@H](CO)NC(=O)[C@](C)(CO)NC(=O)[C@@H](NC(=O)[C@H](CC(=O)O)NC(=O)[C@H](CO)NC(=O)[C@@H](NC(=O)[C@](C)(Cc1ccccc1)NC(=O)[C@H](CO)NC(=O)CNC(=O)[C@H](CCC(=O)O)NC(=O)C(C)(C)NC(=O)[C@@H](N)Cc1c[nH]cn1)[C@@H](C)O)C(C)C)[C@@H](C)CC)C(=O)N[C@H](C(=O)N[C@@](C)(CCCCN)C(=O)NCC(=O)NCC(N)=O)C(C)C)C(=O)O` [compound 74] (H-H[Aib]EGS[αMeF]TSDV[αMeS]S[αMeF]LEGEAA[αMeK]E[αMeF]IA[αMeF]K([γGlu-Palmitoyl])V[αMeK]GG-NH2; N-terminus assumed), the EC50 under setting [1] came out at 2.1 pM.
The same measure, in the same setting: then `CCCCCCCCCCCCCCCC(=O)N[C@@H](CCC(=O)NCCCC[C@H](NC(=O)[C@](C)(Cc1ccccc1)NC(=O)[C@H](CCC(=O)O)NC(=O)[C@](C)(CCCCN)NC(=O)[C@H](C)NC(=O)[C@H](C)NC(=O)[C@H](CCC(=O)O)NC(=O)CNC(=O)[C@H](CCC(=O)O)NC(=O)[C@H](CC(C)C)NC(=O)[C@](C)(Cc1ccccc1)NC(=O)[C@H](CO)NC(=O)[C@](C)(CO)NC(=O)[C@@H](NC(=O)[C@H](CC(=O)O)NC(=O)[C@H](CO)NC(=O)[C@@H](NC(=O)[C@](C)(Cc1ccccc1)NC(=O)[C@H](CO)NC(=O)CNC(=O)[C@H](CCC(=O)O)NC(=O)C(C)(C)NC(=O)[C@@H](N)Cc1c[nH]cn1)[C@@H](C)O)C(C)C)C(=O)N[C@@H](C)C(=O)N[C@@](C)(Cc1ccccc1)C(=O)N[C@H](C(=O)N[C@H](C(=O)N[C@@](C)(CCCCN)C(=O)NCC(=O)NCC(N)=O)C(C)C)C(C)C)C(=O)O` [compound 77] (H-H[Aib]EGS[αMeF]TSDV[αMeS]S[αMeF]LEGEAA[αMeK]E[αMeF]K([γGlu-Palmitoyl])A[αMeF]VV[αMeK]GG-NH2; N-terminus assumed), with 1860 pM.
For the molecule `CCCCCCCCCCCCCCCC(=O)N[C@@H](CCC(=O)NCCCC[C@H](NC(=O)[C@H](CCC(=O)O)NC(=O)[C@H](CC(C)C)NC(=O)[C@](C)(Cc1ccccc1)NC(=O)[C@H](CO)NC(=O)[C@](C)(CO)NC(=O)[C@@H](NC(=O)[C@H](CC(=O)O)NC(=O)[C@H](CO)NC(=O)[C@@H](NC(=O)[C@](C)(Cc1ccccc1)NC(=O)[C@H](CO)NC(=O)CNC(=O)[C@H](CCC(=O)O)NC(=O)C(C)(C)NC(=O)[C@@H](N)Cc1c[nH]cn1)[C@@H](C)O)C(C)C)C(=O)N[C@@H](CCC(=O)O)C(=O)N[C@@H](C)C(=O)N[C@@H](C)C(=O)N[C@@](C)(CCCCN)C(=O)N[C@@H](CCC(=O)O)C(=O)N[C@@](C)(Cc1ccccc1)C(=O)N[C@H](C(=O)N[C@@H](C)C(=O)N[C@@](C)(Cc1ccccc1)C(=O)N[C@H](C(=O)N[C@H](C(=O)N[C@@](C)(CCCCN)C(=O)NCC(=O)NCC(N)=O)C(C)C)C(C)C)[C@@H](C)CC)C(=O)O` [compound 84] (H-H[Aib]EGS[αMeF]TSDV[αMeS]S[αMeF]LEK([γGlu-Palmitoyl])EAA[αMeK]E[αMeF]IA[αMeF]VV[αMeK]GG-NH2; N-terminus assumed), the EC50 is, setting by setting: under setting [1], 8 pM; under setting [2], 8.1 pM.
`CC[C@H](C)[C@H](NC(=O)[C@](C)(Cc1ccccc1)NC(=O)[C@H](CCC(=O)O)NC(=O)[C@](C)(CCCCN)NC(=O)[C@H](C)NC(=O)[C@H](C)NC(=O)[C@H](CCC(=O)O)NC(=O)CNC(=O)[C@H](CCC(=O)O)NC(=O)[C@H](CC(C)C)NC(=O)[C@](C)(Cc1ccccc1)NC(=O)[C@H](CO)NC(=O)[C@](C)(CO)NC(=O)[C@@H](NC(=O)[C@H](CC(=O)O)NC(=O)[C@H](CO)NC(=O)[C@@H](NC(=O)[C@](C)(Cc1ccccc1)NC(=O)[C@H](CO)NC(=O)CNC(=O)[C@H](CCC(=O)O)NC(=O)C(C)(C)NC(=O)[C@@H](N)Cc1c[nH]cn1)[C@@H](C)O)C(C)C)C(=O)N[C@@H](C)C(=O)N[C@@](C)(Cc1ccccc1)C(=O)N[C@H](C(=O)N[C@H](C(=O)N[C@@](C)(CCCCN)C(=O)N[C@@H](CCCCNC(=O)COCCOCCNC(=O)COCCOCCNC(=O)CC[C@H](NC(=O)CCCCCCCCCCCCCCCCC(=O)O)C(=O)O)C(=O)NCC(N)=O)C(C)C)C(C)C` [compound 100] (H-H[Aib]EGS[αMeF]TSDV[αMeS]S[αMeF]LEGEAA[αMeK]E[αMeF]IA[αMeF]VV[αMeK]K([AEEA-AEEA-γGlu-C18 diacid])G-NH2; N-terminus assumed): the EC50 under setting [1] is 15 pM.
As to `CC[C@H](C)[C@H](NC(=O)[C@](C)(Cc1ccccc1)NC(=O)[C@H](CCC(=O)O)NC(=O)[C@](C)(CCCCN)NC(=O)[C@H](C)NC(=O)[C@H](C)NC(=O)[C@H](CCC(=O)O)NC(=O)CNC(=O)[C@H](CCC(=O)O)NC(=O)[C@H](CC(C)C)NC(=O)[C@](C)(Cc1ccccc1)NC(=O)[C@H](CO)NC(=O)[C@](C)(CO)NC(=O)[C@@H](NC(=O)[C@H](CC(=O)O)NC(=O)[C@H](CO)NC(=O)[C@@H](NC(=O)[C@](C)(Cc1ccccc1)NC(=O)[C@H](CO)NC(=O)CNC(=O)[C@H](CCC(=O)O)NC(=O)C(C)(C)NC(=O)[C@@H](N)Cc1c[nH]cn1)[C@@H](C)O)C(C)C)C(=O)N[C@@H](C)C(=O)N[C@@H](CCCCNC(=O)COCCOCCNC(=O)COCCOCCNC(=O)CC[C@H](NC(=O)CCCCCCCCCCCCCCCCC(=O)O)C(=O)O)C(=O)N[C@H](C(=O)N[C@H](C(=O)N[C@@](C)(CCCCN)C(=O)NCC(=O)NCC(N)=O)C(C)C)C(C)C` [compound 104], the EC50 under setting [1] turned out to be 5 pM.
